The record followed here is the Bradley open melting point set (2014).

Each structure is given as a SMILES string. Several values for one entry are separate records, joined by “and”; a condition that tells them apart may be missing. Equal entries are not always repeated.

Broadly, the melting point is the temperature, or range, at which the solid turns liquid. For the compound `Oc1ccc(OCc2ccccc2)cc1` [Monobenzone], the melting point stood at 114 °C.
The result for `c1ccc(-c2nnc(-c3ccccc3)o2)cc1` [2,5-diphenyl-1,3,4-oxadiazole] reads 140 °C; that for `O=C(O)/C=C/c1ccco1` [3-(2-furyl)acrylic acid], 142 °C.
In turn, `O=C(O)CCCc1ccccc1` [4-phenylbutyric acid] yielded a melting point of 51 °C.
Then `Cc1ccc(N)c(N)c1` [4-Methylbenzene-1,2-diamine], with 89.5 °C.
As to `O=C(O)CCCCCCCCCCCCCCCO` [16-hydroxyhexadecanoic acid], the melting point turned out to be 99 °C.
For `C(=C\c1ccccc1)/c1ccccc1` [trans-stilbene], the melting point is 125 °C and 124 °C.
Then `O=C(O)c1ccc(Br)o1` [5-bromo-2-furoic acid], with 190 °C; and `O=C(O)Cc1c(Cl)cccc1Cl` [2,6-dichlorophenylacetic acid], with 160 °C; and `Oc1cccc(N2CCOCC2)c1` [3-(4-morpholinyl)phenol], with 130 °C.
Then `CCOC(=O)NCCOc1ccc(Oc2ccccc2)cc1` [fenoxycarb], with 53.5 °C.
The result for `O=C(NC(C(=O)O)c1ccccc1)OCC(Cl)(Cl)Cl` (stereo not drawn) [Phenyl{[(2,2,2-trichloroethoxy)carbonyl]amino}acetic acid] reads 142 °C; that for `COc1ccc2c(c1)c(CC(=O)O)c(C)n2C(=O)c1ccc(Cl)cc1` [indomethacin], 160 °C; that for `COC(=O)C1C(=O)C=C(O)CC1C` (stereo not drawn) [methyl 4-hydroxy-6-methyl-2-oxo-3-cyclohexene-1-carboxylate], 123 °C.
On to `CC(=O)c1cc(Cl)ccc1Cl` [2',5'-dichloroacetophenone], for which the melting point amounted to 12 °C.
`CC(C)(C)Br` [2-bromo-2-methylpropane] returned a melting point of -16 °C.
With `O=Cc1ccc(N2CCCC2)c([N+](=O)[O-])c1` [3-nitro-4-(1-pyrrolidinyl)benzaldehyde], the melting point was 103 °C.
Take `CCCCCCCC(=O)Oc1ccc(/N=N/c2ccc(CCCC)cc2)cc1` [4-[(E)-(4-butylphenyl)diazenyl]phenyl octanoate]: the melting point was 64 °C.
In turn, `COc1ccc2ccccc2c1C=O` [2-methoxy-1-naphthaldehyde] came in with a melting point of 84 °C.
The result for `COc1ccc(CC(=O)O)cc1` [4-methoxyphenylacetic acid] reads 87 °C; that for `Cc1ccc([N+](=O)[O-])c(C)c1` [2,4-Dimethyl-1-nitrobenzene], 7 °C; that for `Cc1cc(C)c(CSCc2c(C)cc(C)cc2C)c(C)c1` [1,1'-(sulfanediyldimethanediyl)bis(2,4,6-trimethylbenzene)], 146 °C.
The result for `NCc1ccccc1` [Benzylamine] reads 10 °C; that for `O=C=Nc1ccccc1` [phenyl isocyanate], -33 °C.
`Oc1c(Br)c(Br)c(O)c(Br)c1Br` [tetrabromohydroquinone] showed a melting point of 244 °C.
In turn, `CC12CCC(CC1=O)C2(C)C` (stereo not drawn) [camphor] gave a melting point of 174 °C.
Then `CS(=O)(=O)OCCCCOS(C)(=O)=O` [busulfan], with 116 °C; and `O=C(O)c1cccc(O)c1` [3-hydroxybenzoic_acid], with 203 °C.
The result for `C=CCCCCCCCCCCC` [1-tridecene] reads -23 °C; that for `CN[C@@H](C)[C@H](O)c1ccccc1` [Ephedrine], 34 °C.
Compound `Oc1ccccc1I` [2-Iodophenol] came in with a melting point of 38.5 °C.
Turning to `C=CC(=O)OCC` [ethyl_acrylate], the melting point is -71 °C.
As for `Cn1c(C=O)nc2ccccc21` [1-methylbenzimidazole-2-carboxaldehyde], the melting point turned out to be 120 °C.
Then `O=C(O)c1ccccc1OP(=O)(O)O` [2-carboxyphenyl phosphate], with 164 °C; and `Cc1ccc(O)c2c1CCC2` [7-methyl-4-indanol], with 81 °C; and `COc1ccc(C(=O)O)cc1OC` [3,4-Dimethoxybenzoic acid], with 181 °C.
Then `CC(=O)c1cccc(B(O)O)c1` [3-acetylbenzeneboronic acid], with 203 °C; and `COc1cc(N)c(Cl)cc1C(=O)NC1CCN(CCCOc2ccc(F)cc2)CC1OC` (stereo not drawn) [Cisapride], with 110 °C; and `CC1=C(/C=C/C(C)=C/C=C/C(C)=C/C(=O)O)C(C)(C)CCC1` [retinoic acid], with 181 °C.
For the compound `CC1(C)C(=O)OC2=C(CC3C4CC=C5CC(O)CCC5(C)C4CCC23C)C1c1ccccc1` (stereo not drawn), the melting point amounted to 233 °C.
Then `O=Cc1ccc(C(F)(F)F)cc1` [4-(trifluoromethyl)benzaldehyde], with 1.5 °C.
Then `Cc1cc(Br)ccc1N=C=S` [4-bromo-2-methylphenyl isothiocyanate], with 45 °C; and `CC(=O)CC(C)=O` [2,4-pentanedione], with -23 °C.
Then `O=C1CS/C(=N\c2ccccc2)N1c1ccccc1` [OSM-S-47], with 176 °C; and `CCCN(CCC)S(=O)(=O)c1ccc(C(=O)O)cc1` [Probenecid], with 195 °C.
Compound `CCCCOc1ccc(-c2nnc3sc(/C=C/c4ccccc4)nn23)cc1` registered a melting point of 80 °C.
Then `Brc1cccc2ccccc12` [1-bromonaphthalene], with -1 °C; and `FC(F)(Cl)Cl` [Dichloro(difluoro)methane], with -158 °C.
Regarding `CCC1(c2ccccc2)C(=O)NC(=O)N(C)C1=O` (stereo not drawn) [mephobarbital], the melting point came out at 176 °C.
Then `COc1ccc(C)cc1` [4-methylanisole], with -50 °C; and `CC(=O)Nc1ccc(C2=NN(c3ccccc3)C(=O)C2)cc1`, with 210 °C.
Then `NS(=O)(=O)c1cccc(Br)c1` [3-bromobenzenesulfonamide], with 156 °C; and `O=[N+]([O-])c1ccc(Oc2ccc(C(F)(F)F)cc2[N+](=O)[O-])cc1` [Fluorodifen], with 90 °C.
With `COc1ccc(/C=C/C=O)cc1` [trans-4-methoxycinnamaldehyde], the melting point worked out at 58 °C.
Then `COc1ccc(-c2oc3c(OC)c(OC)ccc3c(=O)c2O)cc1` [3-hydroxy-4',7,8-trimethoxyflavone], with 198 °C; and `ClC1=C(Cl)[C@]2(Cl)C3C(Cl)C=CC3[C@@]1(Cl)C2(Cl)Cl` (stereo partly drawn), with 95.5 °C.
Then `O=C(O)c1cccc2ccccc12` [1-naphthoic acid], with 161 °C; and `Fc1c(F)c(F)c(P(c2ccccc2)c2c(F)c(F)c(F)c(F)c2F)c(F)c1F` [bis(pentafluorophenyl)phenylphosphine], with 62 °C; and `CCCCCCCCC(=O)O` [nonanoic_acid], with 12 °C.
The result for `O=C(O)c1ccc([N+](=O)[O-])cc1Cl` [2-chloro-4-nitrobenzoic acid] reads 142 °C; that for `O=C(O)CSc1cccc2cccc(Cl)c12` [2-(8-chloro-1-naphthylthio)acetic acid], 156 °C; that for `Clc1ccc(C(c2ccccc2Cl)C(Cl)(Cl)Cl)cc1` (stereo not drawn) [o,p'-DDT], 75 °C.
The compound `CC(CCC(=O)O)C1CCC2C3CCC4CC(=O)CCC4(C)C3CC(O)C12C` (stereo not drawn) [12-hydroxy-3-oxocholan-24-oic acid] yielded a melting point of 108 °C.
Compound `CC(O)c1c(F)c(F)c(F)c(F)c1F` (stereo not drawn) [1-(pentafluorophenyl)ethanol] displayed a melting point of 33 °C.
Turning to `CCCCCCCC` [octane], the melting point was -57 °C and -56.8 °C.
Then `C1=C\CCCCCC/1` [cis-cyclooctene], with -16 °C; and `O=C(OC[C@H]1O[C@](O)(COC(=O)c2cccnc2)[C@@H](OC(=O)c2cccnc2)[C@@H]1OC(=O)c1cccnc1)c1cccnc1` [nicofuranose], with 135 °C.
Take `Cc1ccc(-c2csc(/C(C#N)=N/Nc3cccc(C)c3)n2)cc1`: the melting point was 133 °C.
For `Cc1ccc(O)c(C)c1` [2,4-dimethylphenol], the melting point came out at 27 °C.
For the compound `CC1(C)S[C@@H]2[C@H](NC(=O)[C@H](N)c3ccccc3)C(=O)N2[C@H]1C(=O)O` [ampicillin], the melting point amounted to 200 °C.
The result for `Cc1ccc(O)cc1` [p-Cresol] reads 34 °C; that for `CC/C(=C(/CC)c1ccc(O)cc1)c1ccc(O)cc1` [diethylstilbestrol], 178 °C; that for `Nc1nc2c(ncn2COCCO)c(=O)[nH]1` [acyclovir], 255 °C.
The result for `c1ccc(CC2CCNCC2)cc1` [4-benzylpiperidine] reads 7 °C; that for `Cc1ccc(O)c(C(=O)O)c1` [5-methylsalicylic acid], 153 °C; that for `N#CCc1ccc(C#N)cc1` [p-cyano_phenylacetonitrile], 100 °C.
The result for `OCCCCO` [1,4-Butanediol] reads 20.1 °C; that for `CN(C)CCO` [2-(dimethylamino)ethanol], -60 °C.
The compound `CC(=N/O)/C(C)=N\O` [(2Z,3Z)-N,N'-Dihydroxybutane-2,3-diimine] gave a melting point of 238 °C.
In turn, `Clc1cc(Cl)c(-c2cc(Cl)c(Cl)c(Cl)c2Cl)cc1Cl` [PCB-180] yielded a melting point of 112 °C.
Then `O=C(c1ccccc1)C(O)c1ccccc1` (stereo not drawn) [benzoin], with 134 °C; and `O=C(O)CN1C(=O)c2ccccc2C1=O` [N-phthaloylglycine], with 196 °C.
Then `c1ccc(Cc2ccc(-c3ccccc3)cc2)cc1` [4-benzylbiphenyl], with 86 °C; and `CCCNC(=O)NS(=O)(=O)c1ccc(Cl)cc1` [Chlorpropamide], with 128 °C; and `CC(=O)S[C@@H]1CC2=CC(=O)CC[C@]2(C)[C@H]2CC[C@@]3(C)[C@@H](CC[C@@]34CCC(=O)O4)[C@H]12` [Spironolactone], with 134 °C.
Turning to `O=Cc1ccc(O)cc1O` [2,4-dihydroxybenzaldehyde], the melting point turned out to be 136 °C.
Regarding `CCCCCCCCN(CCCCCCCC)CCCCCCCC` [tri-n-octylamine], the melting point was -39 °C.
In turn, `Cn1cnc2c1c(=O)[nH]c(=O)n2C` [theobromine] came in with a melting point of 357 °C.
